Where a SMILES comes first, the peptide text is derived from it. Bridges are numbered along the chain shown (N, C = ends). [ ]: non-standard residue; d: D form. ξ: configuration not given here. pGlu = O=C1CC[C@@H](C(=O)O)N1; ξpGlu = O=C1CCC(C(=O)O)N1
Experiments:
[1] = Toxicity in human RBC assessed as hemolytic activity at 2 uM measured after 1 hr by spectrophotometric analysis; format: cell-based; settings: erythrocyte
[2] = tested on: Mus musculus; assay: Toxicity in mouse assessed as stiff tail at 40 mg/kg, ip after 12 hrs; format: organism-based; settings: in vivo
[3] = tested on: Mus musculus; assay: Toxicity in mouse assessed as aggressiveness at 40 mg/kg, ip after 12 hrs; format: organism-based; settings: in vivo
[4] = Toxicity in Thamnaconus modestus RBC assessed as hemolytic activity at 0.08 to 50 uM measured after 1 hr by spectrophotometric analysis; format: cell-based; settings: erythrocyte
[5] = tested on: Mus musculus; assay: Toxicity in mouse assessed as mortality at 40 mg/kg, ip after 7 days; format: organism-based; settings: in vivo, 168 h
[6] = tested on: RAW264.7; assay: Cytotoxicity against mouse RAW264.7 cells assessed as cell viability at 10 or 40 ug/ml measured after 24 hrs by WST assay; format: cell-based; settings: raw264.7, 24 h
[7] = Toxicity in human RBC assessed as hemolytic activity at 50 uM measured after 1 hr by spectrophotometric analysis; format: cell-based, Erythrocyte; settings: erythrocyte, 1 h, 50 µM
[8] = tested on: RAW264.7; assay: Toxicity in mouse RAW264.7 cells assessed as in induction of Nitric oxide production at 10 or 40 ug/ml measured after 24 hrs by Griess reaction method; format: cell-based; settings: raw264.7, 24 h
[9] = tested on: Mus musculus; assay: Toxicity in mouse assessed as paralysis at 40 mg/kg, ip after 12 hrs; format: organism-based; settings: in vivo
[10] = Thermal stability in Tris-acetate-EDTA buffer of pH 8.3 at 100 degC measured upto 12 hrs by reverse-phase HPLC analysis; format: physicochemical; settings: pH 8.3, 12 h
[11] = tested on: Mus musculus; assay: Toxicity in mouse assessed as behavior changes at 40 mg/kg, ip after 7 days; format: organism-based; settings: in vivo, 168 h
[12] = tested on: Mus musculus; assay: Toxicity in mouse assessed as appearance changes at 40 mg/kg, ip after 7 days; format: organism-based; settings: in vivo, 168 h
[13] = tested on: Mus musculus; assay: Toxicity in mouse assessed as convulusion at 40 mg/kg, ip after 12 hrs; format: organism-based; settings: in vivo
[14] = Cytotoxicity against rat Ac2F cells at 30 uM; format: cell-based

Compound	Activity [1]	Activity [2]	Activity [3]	Activity [4]	Activity [5]	Activity [6]	Activity [7]	Activity [8]	Activity [9]	Stability [10]	Activity [11]	Activity [12]	Activity [13]	Activity [14]
CC[C@H](C)[C@H](NC(=O)CN)C(=O)NCC(=O)N[C@@H](C)C(=O)N[C@H](C(=O)N[C@@H](CC(C)C)C(=O)N[C@@H](CCCCN)C(=O)N[C@H](C(=O)N[C@@H](CC(C)C)C(=O)N[C@H](C(=O)N[C@H](C(=O)NCC(=O)N[C@@H](CC(C)C)C(=O)N1CCC[C@H]1C(=O)N[C@@H](C)C(=O)N[C@@H](CC(C)C)C(=O)N[C@H](C(=O)N[C@@H](CO)C(=O)N[C@@H](Cc1c[nH]c2ccccc12)C(=O)N[C@H](C(=O)N[C@@H](CCCCN)C(=O)N[C@@H](CCCNC(=N)N)C(=O)N[C@@H](CCCCN)C(=O)N[C@@H](CCCNC(=N)N)C(=O)N[C@@H](CCC(N)=O)C(=O)N[C@@H](CCC(N)=O)C(N)=O)[C@@H](C)CC)[C@@H](C)CC)[C@@H](C)O)[C@@H](C)O)C(C)C)C(C)C [MELITTIN]	Toxic													
CC[C@H](C)[C@@H]1NC(=O)[C@@H]2CSSC[C@@H]3NC(=O)[C@H](CO)NC(=O)[C@H](CCC(=O)O)NC(=O)CNC(=O)[C@H](CCC(=O)O)NC(=O)[C@H](Cc4ccccc4)NC(=O)[C@H](C)NC(=O)[C@@H](NC(=O)CNC(=O)C4CCC(=O)N4)CSSC[C@H](NC(=O)[C@H](CSSC[C@@H](C(=O)N[C@@H](Cc4ccc(O)cc4)C(=O)N[C@@H](Cc4ccc(O)cc4)C(=O)N[C@@H](CC(C)C)C(=O)O)NC(=O)[C@H]([C@@H](C)O)NC(=O)CNC(=O)[C@H](CC(=O)O)NC(=O)[C@@H]4CCCN4C(=O)[C@H](CC(N)=O)NC(=O)CNC(=O)[C@@H]4CCCN4C1=O)NC(=O)[C@@H]1CCCN1C(=O)[C@H](Cc1ccc(O)cc1)NC(=O)[C@H](Cc1ccccc1)NC(=O)[C@H](CCC(N)=O)NC(=O)[C@H](C(C)C)NC(=O)[C@H](CC(N)=O)NC3=O)C(=O)N1CCC[C@H]1C(=O)NCC(=O)N[C@@H](CC(C)C)C(=O)NCC(=O)N[C@@H](CC(C)C)C(=O)N[C@@H]([C@@H](C)O)C(=O)N2 (stereo partly specified) ([ξpGlu]GCAFEGESCNVQFYPCCPGLGLTCIPGNPDGTCYYL-OH; disulfide 3-18, 10-25, 17-34)		Non-toxic	Non-toxic	Non-toxic	Non-toxic	Non-toxic	Non-toxic	Non-toxic	Non-toxic	Stable	Non-toxic	Non-toxic	Non-toxic	
CC[C@H](C)[C@H](NC(=O)[C@@H](NC(=O)[C@H](Cc1ccc(O)cc1)NC(=O)[C@@H]1CSSC[C@@H]2NC(=O)[C@@H]3CCCN3C(=O)[C@H](CC(N)=O)NC(=O)[C@H](Cc3ccccc3)NC(=O)[C@H](CCC(=O)O)NC(=O)[C@H](C(C)C)NC(=O)[C@H](CC(=O)O)NC(=O)[C@@H]3CSSC[C@H](NC(=O)[C@H]([C@@H](C)O)NC(=O)[C@H](CC(C)C)NC(=O)[C@@H]4CCCN4C(=O)[C@@H]4CCCN4C(=O)[C@H](CSSC[C@H](NC(=O)[C@H](CC(=O)O)NC(=O)[C@@H]4CCC(=O)N4)C(=O)N4CCC[C@H]4C(=O)NCC(=O)N[C@@H](CCC(=O)O)C(=O)NCC(=O)N[C@@H](CCC(=O)O)C(=O)N[C@@H](CCC(N)=O)C(=O)N3)NC2=O)C(=O)N[C@@H]([C@@H](C)CC)C(=O)N2CCC[C@H]2C(=O)NCC(=O)N[C@@H](CC(=O)O)C(=O)N2CCC[C@H]2C(=O)N[C@@H](Cc2ccc(O)cc2)C(=O)NCC(=O)N[C@@H]([C@@H](C)CC)C(=O)N1)[C@@H](C)CC)C(=O)O ([pGlu]DCPGEGEQCDVEFNPCCPPLTCIPGDPYGICYII-OH; disulfide 3-18, 10-23, 17-32)		Non-toxic	Non-toxic	Non-toxic	Non-toxic	Non-toxic	Non-toxic	Non-toxic	Non-toxic	Stable	Non-toxic	Non-toxic	Non-toxic	Non-toxic

Source: ChEMBL document CHEMBL3808389, “Stable and biocompatible cystine knot peptides from the marine sponge Asteropus sp” (Bioorg Med Chem, 2016)
